Measurements reported in the OligoGym collection.
Oligonucleotides are given in HELM: sugar(base)linkage, 5' to 3'; d 2'-deoxyribose, r ribose, m 2'-O-methylribose, p phosphate. ss, as = sense and antisense strand

Target: Mmp7 (rat)
Assay: reporter assay of Huesken 2005
Conditions: siRNA
Further: test concentration or dose not given here.

Substance	normalised inhibition (eCFP-eYFP dual reporter)
RNA1{r(A)p.r(G)p.r(G)p.r(C)p.r(G)p.r(C)p.r(A)p.r(G)p.r(A)p.r(A)p.r(U)p.r(U)p.r(A)p.r(U)p.r(C)p.r(U)p.r(U)p.r(A)p.r(G)p.d(T)p.d(T)}|RNA2{r(C)p.r(U)p.r(A)p.r(A)p.r(G)p.r(A)p.r(U)p.r(A)p.r(A)p.r(U)p.r(U)p.r(C)p.r(U)p.r(G)p.r(C)p.r(G)p.r(C)p.r(C)p.r(U)p.d(G)p.d(T)}$$$RNA1{StrandType:ss}|RNA2{StrandType:as}$	66%
RNA1{r(C)p.r(C)p.r(G)p.r(C)p.r(A)p.r(C)p.r(U)p.r(U)p.r(C)p.r(A)p.r(G)p.r(U)p.r(G)p.r(G)p.r(G)p.r(A)p.r(A)p.r(C)p.r(A)p.d(T)p.d(T)}|RNA2{r(U)p.r(G)p.r(U)p.r(U)p.r(C)p.r(C)p.r(C)p.r(A)p.r(C)p.r(U)p.r(G)p.r(A)p.r(A)p.r(G)p.r(U)p.r(G)p.r(C)p.r(G)p.r(G)p.d(T)p.d(C)}$$$RNA1{StrandType:ss}|RNA2{StrandType:as}$	91.6%
RNA1{r(G)p.r(G)p.r(A)p.r(G)p.r(A)p.r(C)p.r(U)p.r(G)p.r(G)p.r(A)p.r(A)p.r(A)p.r(G)p.r(C)p.r(U)p.r(G)p.r(U)p.r(C)p.r(C)p.d(T)p.d(T)}|RNA2{r(G)p.r(G)p.r(A)p.r(C)p.r(A)p.r(G)p.r(C)p.r(U)p.r(U)p.r(U)p.r(C)p.r(C)p.r(A)p.r(G)p.r(U)p.r(C)p.r(U)p.r(C)p.r(C)p.d(G)p.d(G)}$$$RNA1{StrandType:ss}|RNA2{StrandType:as}$	88.7%
RNA1{r(U)p.r(G)p.r(C)p.r(C)p.r(U)p.r(U)p.r(U)p.r(G)p.r(C)p.r(A)p.r(C)p.r(C)p.r(G)p.r(G)p.r(G)p.r(G)p.r(C)p.r(C)p.r(A)p.d(T)p.d(T)}|RNA2{r(U)p.r(G)p.r(G)p.r(C)p.r(C)p.r(C)p.r(C)p.r(G)p.r(G)p.r(U)p.r(G)p.r(C)p.r(A)p.r(A)p.r(A)p.r(G)p.r(G)p.r(C)p.r(A)p.d(T)p.d(G)}$$$RNA1{StrandType:ss}|RNA2{StrandType:as}$	59.1%
RNA1{r(U)p.r(G)p.r(C)p.r(A)p.r(G)p.r(A)p.r(A)p.r(G)p.r(C)p.r(C)p.r(C)p.r(A)p.r(G)p.r(G)p.r(U)p.r(G)p.r(U)p.r(G)p.r(G)p.d(T)p.d(T)}|RNA2{r(C)p.r(C)p.r(A)p.r(C)p.r(A)p.r(C)p.r(C)p.r(U)p.r(G)p.r(G)p.r(G)p.r(C)p.r(U)p.r(U)p.r(C)p.r(U)p.r(G)p.r(C)p.r(A)p.d(T)p.d(T)}$$$RNA1{StrandType:ss}|RNA2{StrandType:as}$	61.3%
RNA1{r(G)p.r(C)p.r(C)p.r(U)p.r(U)p.r(U)p.r(G)p.r(C)p.r(A)p.r(C)p.r(C)p.r(G)p.r(G)p.r(G)p.r(G)p.r(C)p.r(C)p.r(A)p.r(G)p.d(T)p.d(T)}|RNA2{r(C)p.r(U)p.r(G)p.r(G)p.r(C)p.r(C)p.r(C)p.r(C)p.r(G)p.r(G)p.r(U)p.r(G)p.r(C)p.r(A)p.r(A)p.r(A)p.r(G)p.r(G)p.r(C)p.d(A)p.d(T)}$$$RNA1{StrandType:ss}|RNA2{StrandType:as}$	32.6%
RNA1{r(G)p.r(G)p.r(A)p.r(A)p.r(A)p.r(U)p.r(U)p.r(U)p.r(U)p.r(A)p.r(C)p.r(C)p.r(U)p.r(U)p.r(C)p.r(A)p.r(C)p.r(G)p.r(A)p.d(T)p.d(T)}|RNA2{r(U)p.r(C)p.r(G)p.r(U)p.r(G)p.r(A)p.r(A)p.r(G)p.r(G)p.r(U)p.r(A)p.r(A)p.r(A)p.r(A)p.r(U)p.r(U)p.r(U)p.r(C)p.r(C)p.d(T)p.d(A)}$$$RNA1{StrandType:ss}|RNA2{StrandType:as}$	127%
RNA1{r(G)p.r(C)p.r(U)p.r(U)p.r(C)p.r(G)p.r(C)p.r(A)p.r(A)p.r(G)p.r(G)p.r(G)p.r(G)p.r(A)p.r(G)p.r(A)p.r(U)p.r(C)p.r(A)p.d(T)p.d(T)}|RNA2{r(U)p.r(G)p.r(A)p.r(U)p.r(C)p.r(U)p.r(C)p.r(C)p.r(C)p.r(C)p.r(U)p.r(U)p.r(G)p.r(C)p.r(G)p.r(A)p.r(A)p.r(G)p.r(C)p.d(C)p.d(A)}$$$RNA1{StrandType:ss}|RNA2{StrandType:as}$	105%
